Measured values taken from the supplement of paper PMC10307832.

Tests used:
Experiment in all cases: relative viability (nuclei count vs DMSO), 5 days (fraction); higher = more cells survive
Bexarotene + Palbociclib = compound: C=C(c1ccc(C(=O)O)cc1)c1cc2c(cc1C)C(C)(C)CCC2(C)C [Bexarotene] + CC(=O)c1c(C)c2cnc(Nc3ccc(N4CCNCC4)cn3)nc2n(C2CCCC2)c1=O [Palbociclib] (partner 0.5 µM)
Summary of the method: (§1)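 Lung cancer cell lines in 1536-well plates were dosed by pin tool the day after seeding, either with one drug alone or with a fixed anchor-drug dose plus five library-drug doses (not always all listed) in √10 steps. After 5 days, cells were fixed and their nuclei stained in one step (final 0.05% Triton X-100, 1% formaldehyde, 1 ug/ml Hoechst), then counted on 4× images. Relative viability is the nuclei count in treated wells divided by that in vehicle wells. Values are medians of duplicate plates.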

Bexarotene + Bortezomib = compound: C=C(c1ccc(C(=O)O)cc1)c1cc2c(cc1C)C(C)(C)CCC2(C)C [Bexarotene] + CC(C)C[C@H](NC(=O)[C@H](Cc1ccccc1)NC(=O)c1cnccn1)B(O)O [Bortezomib] (partner 0.002 µM)
Summary of the method: as §1

Bexarotene + Foretinib = compound: C=C(c1ccc(C(=O)O)cc1)c1cc2c(cc1C)C(C)(C)CCC2(C)C [Bexarotene] + COc1cc2c(Oc3ccc(NC(=O)C4(C(=O)Nc5ccc(F)cc5)CC4)cc3F)ccnc2cc1OCCCN1CCOCC1 [Foretinib] (partner 0.25 µM)
Summary of the method: as §1

Bexarotene + Pictilisib = compound: C=C(c1ccc(C(=O)O)cc1)c1cc2c(cc1C)C(C)(C)CCC2(C)C [Bexarotene] + CS(=O)(=O)N1CCN(Cc2cc3nc(-c4cccc5[nH]ncc45)nc(N4CCOCC4)c3s2)CC1 [Pictilisib] (partner 1 µM)
Summary of the method: as §1

| Cell Line | relative viability (Bexarotene + Palbociclib; first compound 0.08 µM) | relative viability (Bexarotene + Palbociclib; first compound 0.253 µM) | relative viability (Bexarotene + Palbociclib; first compound 0.8 µM) | relative viability (Bexarotene + Palbociclib; first compound 2.53 µM) | relative viability (Bexarotene + Palbociclib; first compound 8 µM) | relative viability (Bexarotene + Bortezomib; first compound 0.08 µM) | relative viability (Bexarotene + Bortezomib; first compound 0.253 µM) | relative viability (Bexarotene + Bortezomib; first compound 0.8 µM) | relative viability (Bexarotene + Bortezomib; first compound 2.53 µM) | relative viability (Bexarotene + Bortezomib; first compound 8 µM) | relative viability (Bexarotene + Foretinib; first compound 0.08 µM) | relative viability (Bexarotene + Foretinib; first compound 0.253 µM) | relative viability (Bexarotene + Foretinib; first compound 0.8 µM) | relative viability (Bexarotene + Foretinib; first compound 2.53 µM) | relative viability (Bexarotene + Foretinib; first compound 8 µM) | relative viability (Bexarotene + Pictilisib; first compound 0.08 µM) | relative viability (Bexarotene + Pictilisib; first compound 0.253 µM) | relative viability (Bexarotene + Pictilisib; first compound 0.8 µM) | relative viability (Bexarotene + Pictilisib; first compound 2.53 µM) | relative viability (Bexarotene + Pictilisib; first compound 8 µM) |
| --- | --- | --- | --- | --- | --- | --- | --- | --- | --- | --- | --- | --- | --- | --- | --- | --- | --- | --- | --- | --- |
| LCLC-103H | 0.495 | 0.544 | 0.453 | 0.476 | 0.475 | 1.07 | 1.03 | 0.863 | 1.11 | 1.23 | 0.753 | 0.665 | 0.695 | 0.814 | 0.677 | 0.71 | 0.642 | 0.529 | 0.653 | 0.631 |
| LOU-NH91 | 0.544 | 0.507 | 0.485 | 0.528 | 0.551 | 0.544 | 0.458 | 0.488 | 0.458 | 0.439 | 0.88 | 0.89 | 0.84 | 0.878 | 0.786 | 0.546 | 0.537 | 0.508 | 0.492 | 0.505 |
| LU99A | 0.449 | 0.395 | 0.355 | 0.468 | 0.371 | 1.36 | 1.26 | 1.12 | 1.23 | 1.21 | 0.908 | 0.865 | 0.898 | 0.931 | 0.809 | 0.377 | 0.407 | 0.379 | 0.297 | 0.323 |
| LXF-289 | 0.636 | 0.63 | 0.605 | 0.593 | 0.639 | 1.15 | 1.08 | 1.14 | 1.09 | 1.16 | 1.18 | 1.02 | 1.02 | 1.09 | 1.22 | 0.798 | 0.68 | 0.711 | 0.581 | 0.604 |
| NCI-H23 | 0.554 | 0.567 | 0.571 | 0.555 | 0.543 | 1.1 | 1.03 | 1.02 | 0.9 | 0.962 | 0.888 | 1.06 | 0.921 | 1.01 | 0.785 | 0.623 | 0.489 | 0.44 | 0.516 | 0.52 |
| NCI-H322M | 0.437 | 0.469 | 0.487 | 0.531 | 0.532 | 1.3 | 1.4 | 1.26 | 1.17 | 1.32 | 1.06 | 1.14 | 0.946 | 0.977 | 0.978 | 0.573 | 0.408 | 0.544 | 0.514 | 0.502 |
| NCI-H441 | 0.295 | 0.228 | 0.256 | 0.243 | 0.23 | 0.472 | 0.633 | 0.592 | – | 0.619 | 1.01 | 1.04 | 1.13 | 0.841 | 0.927 | 0.628 | 0.511 | 0.524 | 0.482 | 0.616 |
| NCI-H460 | 0.147 | 0.156 | 0.237 | 0.105 | 0.158 | 1.16 | 1.09 | 0.961 | 1.14 | 1.04 | 1.1 | 0.99 | 0.976 | 1.02 | 1.01 | 0.471 | 0.343 | 0.396 | 0.302 | 0.371 |
| NCI-H520 | 0.271 | 0.182 | 0.198 | 0.229 | 0.207 | 0.805 | 0.588 | 0.518 | 0.385 | 0.534 | 0.854 | 0.678 | 0.652 | 0.812 | 0.727 | 0.324 | 0.244 | 0.293 | 0.286 | 0.235 |
| NCI-H647 | 0.467 | 0.358 | 0.443 | 0.367 | 0.369 | 0.943 | 1.05 | 0.89 | 1.1 | 1.02 | 1.32 | 1.42 | 1.4 | 1.32 | 1.04 | 0.378 | 0.356 | 0.429 | – | 0.358 |
| NCI-H650 | 0.306 | 0.286 | 0.294 | 0.311 | 0.339 | 0.898 | 1.08 | 0.847 | 0.624 | 0.726 | 0.974 | 0.995 | 0.958 | 0.991 | 0.996 | 0.946 | 0.939 | 0.851 | 0.753 | 0.858 |
| NCI-H661 | 0.407 | 0.422 | 0.447 | 0.401 | 0.405 | 0.807 | 0.807 | 0.803 | 0.81 | 0.761 | 1.02 | 1.04 | 0.916 | 0.967 | 0.933 | 0.438 | 0.362 | 0.397 | 0.362 | 0.35 |
| NCI-H727 | 0.683 | 0.578 | 0.595 | 0.696 | 0.711 | 1.21 | 0.735 | 0.899 | 0.822 | 0.955 | 1.09 | 1.12 | 0.875 | 0.859 | 0.808 | 0.463 | 0.36 | 0.348 | 0.346 | 0.355 |
| NCI-H838 | 0.23 | 0.209 | 0.176 | 0.216 | 0.245 | 0.995 | 1.16 | 0.803 | 0.777 | 0.949 | 1.14 | 1.03 | 1.06 | 1.05 | 1.01 | 0.557 | 0.5 | 0.51 | 0.638 | 0.578 |
| NCI-H1355 | 0.422 | 0.387 | 0.384 | 0.446 | 0.434 | 1.17 | 1.35 | 1.21 | 1.32 | 1.14 | 1 | 1.09 | 0.91 | 1.05 | 0.947 | 0.604 | 0.622 | 0.358 | 0.561 | 0.486 |
| NCI-H1437 | 0.317 | 0.306 | 0.294 | 0.291 | 0.286 | 0.528 | 0.621 | 0.611 | 0.546 | 0.49 | 1.26 | 1.32 | 1.22 | 1.23 | 1.26 | 0.572 | 0.447 | 0.56 | 0.601 | 0.542 |
| NCI-H1650 | 0.355 | 0.285 | 0.279 | 0.271 | 0.282 | 0.218 | 0.21 | 0.178 | 0.204 | 0.227 | 1.13 | 0.988 | 1.09 | 1.18 | 1.11 | 0.669 | 0.544 | 0.527 | 0.537 | 0.527 |
| NCI-H1651 | 0.531 | 0.521 | 0.533 | 0.537 | 0.534 | 1.14 | 0.843 | 0.965 | 0.944 | 1.04 | 0.86 | 0.98 | 0.805 | 0.933 | 0.84 | 0.837 | 0.52 | 0.723 | 0.674 | 0.593 |
| NCI-H1666 | 0.618 | 0.746 | 0.545 | 0.631 | 0.565 | 0.742 | 0.701 | 0.727 | 0.719 | 0.75 | 0.974 | 0.937 | 0.85 | 0.867 | 0.833 | 0.256 | 0.337 | 0.359 | 0.58 | 0.459 |
| NCI-H1734 | 0.333 | 0.33 | 0.292 | 0.282 | 0.318 | 0.896 | 0.98 | 0.936 | 0.87 | 0.818 | 0.913 | 0.799 | 0.928 | 0.822 | 0.769 | 0.559 | 0.462 | 0.4 | 0.442 | 0.43 |
| NCI-H1755 | 0.463 | 0.479 | 0.438 | 0.48 | 0.44 | 1.02 | 1.03 | 1.02 | 1 | 0.957 | 0.934 | 0.953 | 0.885 | 0.937 | 0.852 | 0.457 | 0.454 | 0.356 | 0.37 | 0.337 |
| NCI-H1915 | 0.555 | 0.5 | 0.442 | 0.533 | 0.423 | 1 | 0.989 | 0.896 | 0.993 | 0.911 | 1.19 | 1.13 | 1.1 | 1.06 | 1.07 | 1.19 | 0.989 | 0.882 | 0.996 | 0.917 |
| NCI-H1975 | 0.667 | 0.578 | 0.575 | 0.616 | 0.547 | 0.414 | 0.376 | 0.452 | 0.428 | 0.346 | 1.11 | 0.983 | 1.12 | 1.04 | 1.05 | 0.361 | 0.347 | 0.319 | 0.342 | 0.386 |
| NCI-H1993 | 0.654 | 0.668 | 0.597 | 0.693 | 0.733 | 1.01 | 0.991 | 0.984 | 0.978 | 1.1 | 0.807 | 0.732 | 0.768 | 0.725 | 0.766 | 0.803 | 0.846 | 0.899 | 0.866 | 0.836 |
| NCI-H2009 | 0.32 | 0.239 | 0.201 | 0.226 | 0.322 | 1.16 | 1.27 | 1.13 | 1.08 | 1 | 1.33 | 1.34 | 1.24 | 1.29 | 1.19 | 0.96 | 0.959 | 0.723 | 0.818 | 0.8 |
| NCI-H2023 | 0.312 | 0.423 | 0.4 | 0.359 | 0.269 | 1.08 | 1.01 | 1.07 | 0.846 | 0.786 | 0.841 | 0.799 | 0.899 | 0.775 | 0.68 | 0.326 | 0.245 | 0.241 | 0.252 | 0.222 |
